# Reference: BindingDB's records for doi:10.1016/j.bmc.2020.115544 (Duquesne University, 2020)
# Legend:
# [1] = Inhibition of GARFTase in human KB cells expressing RFC/FRalpha/PCFT assessed as reduction in cell growth after 96 hrs by Cell-Titer Blue assay
# [2] = Inhibition of GARFTase in human KB cells expressing RFC/FRalpha/PCFT assessed as reduction in cell growth after 96 hrs in presence of folic acid by Cell-Titer Blue assay
Compound,IC50 [1],IC50 [2]
Nc1nc2[nH]c(CCNc3ccc(C(=O)N[C@@H](CCC(=O)O)C(=O)O)cc3)cc2c(=O)[nH]1,0.00032 µM,0.666 µM
Nc1nc2[nH]c(CCCNc3ccc(C(=O)N[C@@H](CCC(=O)O)C(=O)O)cc3)cc2c(=O)[nH]1,0.00095 µM,> 1 µM
Nc1nc2[nH]c(CCCOc3ccc(C(=O)N[C@@H](CCC(=O)O)C(=O)O)cc3)cc2c(=O)[nH]1,0.0025 µM,> 1 µM
Nc1nc2[nH]c(CCCSc3ccc(C(=O)N[C@@H](CCC(=O)O)C(=O)O)cc3)cc2c(=O)[nH]1,0.0003 µM,0.757 µM
Nc1nc2[nH]c(CCCN(C=O)c3ccc(C(=O)N[C@@H](CCC(=O)O)C(=O)O)cc3)cc2c(=O)[nH]1,0.013 µM,> 1 µM
Nc1nc2[nH]c(CCCN(C(=O)C(F)(F)F)c3ccc(C(=O)N[C@@H](CCC(=O)O)C(=O)O)cc3)cc2c(=O)[nH]1,0.0054 µM,> 1 µM
CC(=O)N(CCCc1cc2c(=O)[nH]c(N)nc2[nH]1)c1ccc(C(=O)N[C@@H](CCC(=O)O)C(=O)O)cc1,0.04 µM,> 1 µM
